From PubChem BioAssay AID1963984 (Molecular Pharmacology Branch, DTP, NCI, 2024)

System: 233499-124-R-J3-PDC spheroids with HUVEC/MSC, viability
Assay: Anticancer human tumor 233499-124-R-J3-PDC patient-derived colon adenocarcinoma cell line growth inhibition [PI3K]
Conditions: for viability, T/C: stronger effect = lower value
Description: Combinatorial screen of targeted agents with the PI3K inhibitors inavolisib, alpelisib, duvelisib, and copanlisib in multi-cell type tumor spheroids
A high-throughput screen of multi-cell type tumor spheroids was designed to identify active combinations of targeted small molecules and PI3K pathway inhibitors. Complex spheroids include a stromal component modeled by human endothelial cells (HUVEC) and fibroblasts modeled by human mesenchymal stem cells (MSCs). The concentration ranges selected for each drug and investigational agent were based upon clinically achievable concentrations if the clinical Cmax of the agent was known.
Compounds. The drugs and investigational agents: inavolisib (NSC800729), alpelisib (NSC765974), duvelisib (NSC772469), copanlisib (NSC816437), ipatasertib (NSC767898), afuresertib (NSC778305), talazoparib (NSC767125), sapanisertib (NSC764658), selumetinib (NSC741078), tovorafenib (DAY101, NSC766906), vemurafenib (NSC761431), ravoxertinib (NSC781343), sotorasib (NSC818433), MRTX1133 (NSC 836407), abemaciclib (NSC 768073), palbociclib (NSC758247), venetoclax (NSC 766270), SY5609 (NSC837396), enzalutamide (NSC755605), and darolutamide (NSC825331), were obtained from the National Cancer Institute (NCI) Developmental Therapeutics Program Chemical Repository. The FDA-approved anticancer drug set is available from the NCI Developmental Therapeutics Program. […] The stock solutions were prepared in dimethyl sulfoxide (DMSO, Sigma-Aldrich, St. Louis, MO, cat. D2650) at 800-fold the tested concentration and stored at -70 degrees C prior to their use. All drugs and investigational agents were tested over a range starting from a high concentration at or near the clinical Cmax and decreasing in half-log increments. If the clinical Cmax for an agent had not been determined, the highest concentration tested was 10 microM.
Cell Culture. All cells were maintained in an incubator at 37 degrees C and 5% CO2 with 95% humidity. The PDC lines were cultured according to standard operating procedures established by the NCI PDMR (https://pdmr.cancer.gov/sops/default.htm). All PDCs were thawed and cultured in Matrigel-coated flasks prepared with a working solution of 1X Ham's F-12 nutrient mix, without supplementation (Invitrogen, Waltham, MA, cat. 11765054), 100 U/mL penicillin-streptomycin (Invitrogen, cat. 15140122), and 2.5% Matrigel (Corning Inc., Corning, NY, cat. 354248) for the first three passages. The 354836-022-R-J1-PDC, 475296-252-R-J1-PDC, and 997726-040-R-J2-PDC lines were cultured in 6A media, which includes advanced DMEM/F-12 (Thermo Fisher Scientific, cat. 12634028), 10 mM HEPES (Thermo Fisher Scientific, cat. 15630080), 1X GlutaMAX supplement (Thermo Fisher Scientific, cat. 35050061), 0.1 mg/mL primocin (InvivoGen, San Diego, CA, cat. ant-pm-2), 10% defined fetal bovine serum, heat inactivated (HyClone Laboratories Inc., Logan, UT, cat. SH30070.03HI), 50% L-WRN conditioned media (ATCC, cat. CRL-3276), 1.25 mM N-Acetyl-L-cysteine (Sigma-Aldrich, cat. A9165), 10 mM nicotinamide (Sigma-Aldrich, cat. N0636), 1X B-27 supplement (Thermo Fisher Scientific, cat. 17504044), 1X N-2 supplement (Thermo Fisher Scientific, cat. 17502048), and 10 microM Y-27632 dihydrochloride (Tocris Bioscience, Bristol, United Kingdom, cat. 1254). The 624824-186-R-J2-PDC line was cultured in 6C/Colon 1B media, which includes all 6A media components plus 50 ng/mL human EGF recombinant protein (Thermo Fisher Scientific, cat. PHG0311). […]

[1] = curve of first compound, second compound 0.0316 µM
[2] = curve of first compound, second compound 0.1 µM
[3] = curve of first compound, second compound 0.316 µM
[4] = curve of first compound, second compound 1 µM
[5] = second compound 0.0316 µM, first compound 0.0316 µM
[6] = second compound 0.0316 µM, first compound 0.1 µM
[7] = second compound 0.1 µM, first compound 0.0316 µM
[8] = second compound 0.1 µM, first compound 0.1 µM
[9] = second compound 0.316 µM, first compound 0.0316 µM
[10] = second compound 0.316 µM, first compound 0.1 µM
[11] = second compound 1 µM, first compound 0.0316 µM
[12] = second compound 1 µM, first compound 0.1 µM
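Also: spheroids exposed to agents for seven days before readout.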
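For viability, T/C in this document: percent viability relative to DMSO vehicle control taken as 100%.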

Question: How did the viability, T/C (compound 0.0316 µM) turn out when CNC(=O)c1ccc(N2C(=S)N(c3ccc(C#N)c(C(F)(F)F)c3)C(=O)C2(C)C)cc1F was run?
Answer: 93% [middle of 4 runs]

Question: What about the viability, T/C (compound 0.1 µM) of the same compound?
Answer: 94.5% [middle of 4 runs]

Question: And the viability, T/C (compound 0.316 µM)?
Answer: 107% [middle of 4 runs]

Question: And the viability, T/C (compound 1 µM)?
Answer: 93.1% [middle of 4 runs]

Question: And the viability, T/C (compound 3.16 µM)?
Answer: 92.1% [middle of 4 runs]

Question: And the IC50 (curve of compound)?
Answer: > 10 µM

Question: Which results are given for C=CC(=O)N1CCN(c2nc(=O)n(-c3c(C)ccnc3C(C)C)c3nc(-c4c(O)cccc4F)c(F)cc23)C(C)C1 (stereo not given) + Cc1nc(NC(=O)N2CCCC2C(N)=O)sc1-c1ccnc(C(C)(C)C(F)(F)F)c1?
Answer: IC50 [1]: > 10 µM; IC50 [2]: > 10 µM; IC50 [3]: > 10 µM; IC50 [4]: > 10 µM; IC50 (curve of first compound, second compound 3.16 µM): < 0.0316 µM; IC50 (curve of first compound, second compound 10 µM): < 0.0316 µM; viability, T/C [5]: 89.3%; viability, T/C [6]: 94.8%; viability, T/C (second compound 0.0316 µM, first compound 0.316 µM): 99.3%; viability, T/C (second compound 0.0316 µM, first compound 1 µM): 106%; viability, T/C (second compound 0.0316 µM, first compound 3.16 µM): 100%; viability, T/C (second compound 0.0316 µM, first compound 10 µM): 85%; viability, T/C [7]: 84.8%; viability, T/C [8]: 96.3%; viability, T/C (second compound 0.1 µM, first compound 0.316 µM): 93%; viability, T/C (second compound 0.1 µM, first compound 1 µM): 81.4%; viability, T/C (second compound 0.1 µM, first compound 3.16 µM): 79.5%; viability, T/C (second compound 0.1 µM, first compound 10 µM): 80.2%; viability, T/C [9]: 95.2%; viability, T/C [10]: 96.7%; viability, T/C (second compound 0.316 µM, first compound 0.316 µM): 70.1%; viability, T/C (second compound 0.316 µM, first compound 1 µM): 82.2%; viability, T/C (second compound 0.316 µM, first compound 3.16 µM): 67.5%; viability, T/C (second compound 0.316 µM, first compound 10 µM): 92.6%; viability, T/C [11]: 71.7%; viability, T/C [12]: 92.2%; viability, T/C (second compound 1 µM, first compound 0.316 µM): 79.4%; viability, T/C (second compound 1 µM, first compound 1 µM): 77.3%; viability, T/C (second compound 1 µM, first compound 3.16 µM): 80.9%; viability, T/C (second compound 1 µM, first compound 10 µM): 79.8%; viability, T/C (second compound 3.16 µM, first compound 0.0316 µM): 39.4%; viability, T/C (second compound 3.16 µM, first compound 0.1 µM): 51.1%; viability, T/C (second compound 3.16 µM, first compound 0.316 µM): 71.8%; viability, T/C (second compound 3.16 µM, first compound 1 µM): 34.1%; viability, T/C (second compound 3.16 µM, first compound 3.16 µM): 60.9%; viability, T/C (second compound 3.16 µM, first compound 10 µM): 67.9%; viability, T/C (second compound 10 µM, first compound 0.0316 µM): 24%; viability, T/C (second compound 10 µM, first compound 0.1 µM): 41.6%; viability, T/C (second compound 10 µM, first compound 0.316 µM): 24.9%; viability, T/C (second compound 10 µM, first compound 1 µM): 41.8%; viability, T/C (second compound 10 µM, first compound 3.16 µM): 37.6%; viability, T/C (second compound 10 µM, first compound 10 µM): 27.2%

Question: Which results are given for Cn1ncnc1[C@H]1c2n[nH]c(=O)c3cc(F)cc(c23)N[C@@H]1c1ccc(F)cc1 + CC(Nc1ccc2c(c1)OCCn1cc(N3C(=O)OCC3C(F)F)nc1-2)C(N)=O?
Answer: IC50 (curve of first compound, second compound 0.00316 µM): > 0.1 µM; IC50 (curve of first compound, second compound 0.01 µM): 0.0966 µM; IC50 [1]: > 0.1 µM; IC50 [2]: > 0.1 µM; IC50 [3]: > 0.1 µM; IC50 [4]: 0.0269 µM; viability, T/C (second compound 0.00316 µM, first compound 0.000316 µM): 86.6%; viability, T/C (second compound 0.00316 µM, first compound 0.001 µM): 109%; viability, T/C (second compound 0.00316 µM, first compound 0.00316 µM): 70%; viability, T/C (second compound 0.00316 µM, first compound 0.01 µM): 105%; viability, T/C (second compound 0.00316 µM, first compound 0.0316 µM): 84.3%; viability, T/C (second compound 0.00316 µM, first compound 0.1 µM): 63.4%; viability, T/C (second compound 0.01 µM, first compound 0.000316 µM): 77.7%; viability, T/C (second compound 0.01 µM, first compound 0.001 µM): 111%; viability, T/C (second compound 0.01 µM, first compound 0.00316 µM): 88.3%; viability, T/C (second compound 0.01 µM, first compound 0.01 µM): 92.1%; viability, T/C (second compound 0.01 µM, first compound 0.0316 µM): 97%; viability, T/C (second compound 0.01 µM, first compound 0.1 µM): 48.7%; viability, T/C (second compound 0.0316 µM, first compound 0.000316 µM): 92.6%; viability, T/C (second compound 0.0316 µM, first compound 0.001 µM): 81.9%; viability, T/C (second compound 0.0316 µM, first compound 0.00316 µM): 63.6%; viability, T/C (second compound 0.0316 µM, first compound 0.01 µM): 73.4%; viability, T/C [5]: 83.8%; viability, T/C [6]: 61.7%; viability, T/C (second compound 0.1 µM, first compound 0.000316 µM): 97.5%; viability, T/C (second compound 0.1 µM, first compound 0.001 µM): 92.3%; viability, T/C (second compound 0.1 µM, first compound 0.00316 µM): 83.3%; viability, T/C (second compound 0.1 µM, first compound 0.01 µM): 72.8%; viability, T/C [7]: 87.9%; viability, T/C [8]: 66.3%; viability, T/C (second compound 0.316 µM, first compound 0.000316 µM): 71.9%; viability, T/C (second compound 0.316 µM, first compound 0.001 µM): 94.2%; viability, T/C (second compound 0.316 µM, first compound 0.00316 µM): 75%; viability, T/C (second compound 0.316 µM, first compound 0.01 µM): 70.8%; viability, T/C [9]: 60.2%; viability, T/C [10]: 58.3%; viability, T/C (second compound 1 µM, first compound 0.000316 µM): 72.2%; viability, T/C (second compound 1 µM, first compound 0.001 µM): 58.1%; viability, T/C (second compound 1 µM, first compound 0.00316 µM): 58.3%; viability, T/C (second compound 1 µM, first compound 0.01 µM): 58.2%; viability, T/C [11]: 52.1%; viability, T/C [12]: 33%
